Assays:
[1] = molecular target: T1, Protein mono-ADP-ribosyltransferase TIPARP (Homo sapiens, UniProt Q7Z3E1); assay: PARP7 Biochemical Assay
T1 sequence (Q7Z3E1 whole entry): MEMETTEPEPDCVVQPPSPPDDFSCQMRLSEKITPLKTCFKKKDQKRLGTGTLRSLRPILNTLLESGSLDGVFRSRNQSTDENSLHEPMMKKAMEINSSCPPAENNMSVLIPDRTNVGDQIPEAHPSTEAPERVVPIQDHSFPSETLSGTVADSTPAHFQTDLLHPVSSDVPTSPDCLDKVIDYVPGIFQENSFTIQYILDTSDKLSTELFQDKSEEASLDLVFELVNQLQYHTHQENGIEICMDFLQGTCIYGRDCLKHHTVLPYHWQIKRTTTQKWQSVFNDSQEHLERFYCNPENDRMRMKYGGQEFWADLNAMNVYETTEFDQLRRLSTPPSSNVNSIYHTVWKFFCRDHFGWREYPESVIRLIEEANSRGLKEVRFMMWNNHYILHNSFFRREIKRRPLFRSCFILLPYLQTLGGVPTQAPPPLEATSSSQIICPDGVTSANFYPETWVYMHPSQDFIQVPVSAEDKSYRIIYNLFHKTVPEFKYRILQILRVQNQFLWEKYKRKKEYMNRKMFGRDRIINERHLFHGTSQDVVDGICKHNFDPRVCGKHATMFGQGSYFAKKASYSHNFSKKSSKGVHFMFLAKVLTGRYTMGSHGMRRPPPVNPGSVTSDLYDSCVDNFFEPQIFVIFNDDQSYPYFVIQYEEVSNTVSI
Protocol: 23 μL of 100 nM His-GST-PARP7 in PARP buffer for reaction (PBR) (50 mM HEPES pH 7.5, 100 mM NaCl, 4 mM MgCl2, 0.2 mM TCEP) was added to each well of XpressBio GSH-coated 384 well plates and incubated for 1 h at RT. The plate was then washed for 3 times in 50 μL PBST (1×PBS, 0.02% Tween-20), followed by one wash in 1×PBS and one wash PBR. Each wash was incubated for 3 min. After washing, varying concentrations of each inhibitor was pre-incubated with 20 μM (2×) 6-a-NAD+. The solution was added to the plate, diluted to 1× in PBR, and incubated at 30° C. for 90 min. Following the enzymatic reaction, the plate was washed 3 times in PBST, once in PBS for 3 min each wash. The wells were then subjected to 25 μL of click reaction buffer consisting of 100 μM TBTA, 1 mM CuSO4, 100 μM Biotin-N3, 2 mM TCEP made up in 1×PBS. The wells were incubated in click reaction buffer for 30 min at 30° C. The click buffer was removed, and the plate was washed 3 times with PBST and once with PBS as before. The plate was then blocked with 5% BSA in PBST. The plate was then washed 3 times with PBST and once with PBS. To develop, the plate was incubated with 25 μL of 0.05 ng/μL Step-HRP with 0.02% BSA in PBS. The plate was washed 3 times with PBS before developing with QuantaRed per manufacturer directions. Fluorescence (Excitation 550 nm. Emission 620 nm) was immediately read using a Paradigm Plate Reader.

[2] = molecular target: Poly [ADP-ribose] polymerase 2 (Homo sapiens, UniProt Q9UGN5); assay: Protocol for the PARP1 and PARP2 Biochemical Assays
Chain of Poly [ADP-ribose] polymerase 2 (Q9UGN5 whole entry): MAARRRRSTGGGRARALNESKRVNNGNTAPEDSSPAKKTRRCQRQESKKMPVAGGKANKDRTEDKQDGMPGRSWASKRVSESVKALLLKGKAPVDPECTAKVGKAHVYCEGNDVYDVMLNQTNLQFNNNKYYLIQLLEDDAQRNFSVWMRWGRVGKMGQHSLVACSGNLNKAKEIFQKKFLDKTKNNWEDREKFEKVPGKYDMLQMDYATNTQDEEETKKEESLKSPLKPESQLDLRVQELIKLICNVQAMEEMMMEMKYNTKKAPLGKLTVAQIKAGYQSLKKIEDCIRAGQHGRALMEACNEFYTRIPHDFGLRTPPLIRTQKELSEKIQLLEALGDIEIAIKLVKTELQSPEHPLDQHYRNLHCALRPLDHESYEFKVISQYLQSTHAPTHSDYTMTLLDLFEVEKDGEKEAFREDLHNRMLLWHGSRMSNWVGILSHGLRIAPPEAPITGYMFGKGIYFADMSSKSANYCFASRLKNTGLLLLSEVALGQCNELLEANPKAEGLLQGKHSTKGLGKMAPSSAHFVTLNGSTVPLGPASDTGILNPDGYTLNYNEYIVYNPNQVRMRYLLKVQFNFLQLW
Protocol: (§1) Each wash was incubated for 3 min. After washing, varying concentrations of each inhibitor was pre-incubated with 20 μM (2×) 6-a-NAD+. 25 μL of the 2×6-a-NAD+/inhibitor mixture was added to the plate with 25 μL of 20 nM of PARP1 or PARP2 in PBR with 0.1 mg/mL Activated DNA (Sigma). PARP final concentration 10 nM. The reaction mixture was incubated at 30° C. for 1 h. The plate was then washed 3 time with PBST and once with PBS. The wells were subjected to a 50 μL click reaction consisting of 100 μM TBTA, 1 mM CuSO4. 100 μM Biotin-N3, 2 mM TCEP made up in 1×PBS at RT for 30 min. The plate was then washed 3 times with PBST before blocking in 100 μL of 1% Milk (Carnation) in PBST at RT for 30 min. The plate was again washed 3 times with PBST and once with PBS before incubation with Strep-HRP (0.05 ng/μL Strep-HRP (Fisher Scientific), 300 ng/μL BSA, 1×PBS) for 30 min at RT. The plate was washed 3 time in PBST and once with PBS before development with QuantaRed (Pierce) per manufacturer directions.

[3] = molecular target: Poly [ADP-ribose] polymerase 1 (Homo sapiens, UniProt P09874); assay: as above
Chain of Poly [ADP-ribose] polymerase 1 (P09874 whole entry): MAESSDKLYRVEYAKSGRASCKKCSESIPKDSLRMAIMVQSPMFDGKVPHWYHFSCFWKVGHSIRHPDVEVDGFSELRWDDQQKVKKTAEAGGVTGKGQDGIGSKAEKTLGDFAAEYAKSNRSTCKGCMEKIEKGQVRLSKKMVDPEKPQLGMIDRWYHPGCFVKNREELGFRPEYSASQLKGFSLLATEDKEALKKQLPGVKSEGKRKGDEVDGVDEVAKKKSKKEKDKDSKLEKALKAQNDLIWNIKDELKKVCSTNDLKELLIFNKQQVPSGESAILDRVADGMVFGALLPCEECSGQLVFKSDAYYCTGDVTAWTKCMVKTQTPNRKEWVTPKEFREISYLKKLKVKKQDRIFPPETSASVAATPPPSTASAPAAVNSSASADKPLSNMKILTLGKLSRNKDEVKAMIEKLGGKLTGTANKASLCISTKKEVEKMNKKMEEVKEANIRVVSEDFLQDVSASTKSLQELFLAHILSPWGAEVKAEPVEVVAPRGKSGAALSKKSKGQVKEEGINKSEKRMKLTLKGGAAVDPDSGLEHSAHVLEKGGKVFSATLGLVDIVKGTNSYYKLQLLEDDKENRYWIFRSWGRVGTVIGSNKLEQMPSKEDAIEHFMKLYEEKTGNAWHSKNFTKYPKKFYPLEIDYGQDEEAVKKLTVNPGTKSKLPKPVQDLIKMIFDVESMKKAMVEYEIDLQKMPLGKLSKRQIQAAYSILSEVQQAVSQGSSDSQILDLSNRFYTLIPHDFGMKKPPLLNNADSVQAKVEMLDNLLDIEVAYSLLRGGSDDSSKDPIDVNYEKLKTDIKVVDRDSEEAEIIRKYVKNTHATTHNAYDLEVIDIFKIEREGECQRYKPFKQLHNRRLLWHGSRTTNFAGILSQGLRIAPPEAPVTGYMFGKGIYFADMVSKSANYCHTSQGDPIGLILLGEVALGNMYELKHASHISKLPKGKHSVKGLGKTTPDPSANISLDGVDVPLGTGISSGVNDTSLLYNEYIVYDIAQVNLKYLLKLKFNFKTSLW
Protocol: as §1

Row | IC50 [1] [nM] | IC50 [2] [nM] | IC50 [3] [nM] | SMILES
1 | < 50 |  |  | N#Cc1ccc(N2CCN(C(=O)c3cc(Cc4n[nH]c(=O)c5ccc(CCC(F)(F)F)cc45)ccc3F)CC2)nc1 [US20260055079, Example 25]
2 | < 50 |  |  | CCc1ccc2c(=O)[nH]nc(Cc3ccc(F)c(C(=O)N4CCN(c5ncc(C(F)(F)F)cn5)CC4)c3)c2c1 [US20260055079, Example 43]
3 |  | > 2000 |  | CC#Cc1ccc2c(=O)[nH]nc(Cc3ccc(F)c(C(=O)N4CCN(c5ncc(C(F)(F)F)cn5)CC4)c3)c2c1 [US20260055079, Example 48]
4 | < 50 | > 2000 | > 2000 | N#Cc1cnc(N2CCN(C(=O)c3cc(Cc4n[nH]c(=O)c5ccc(OC6CCC6)cc45)ccc3F)CC2)cc1C(F)(F)F [US20260055079, Example 132]

Row | SMILES | IC50 [1] [nM] | IC50 [2] [nM] | IC50 [3] [nM]
5 | N#Cc1ccc(N2CCN(C(=O)c3cc(Cc4n[nH]c(=O)c5ccc(/C=C/C(F)(F)F)cc45)ccc3F)CC2)nc1 [US20260055079, Example 27] | < 50 |  | 
